Experimental data reported in patent publication US20250206714A1, “COMPOSITIONS AND METHODS FOR TREATMENT OF INFLAMMATORY DISEASES” (Invea Therapeutics, Inc., priority 2022, published 2025).

Columns and labels:
[1] = tested on: MDR1 (P-gp); test: in vitro; set-up: Papp A→B at 60 min / Papp B→A at 60 min / efflux ratio at 60 min / recovery at 60 min / % recovery Apical concentration-Basal concentration / % recovery Basal concentration-Apical concentration: dose or concentration left out as unconfirmed; conditions: dog; for efflux ratio at 60 min: MDCK-MDR1
Procedure: (§1) Digoxin is used as reference and lucifer yellow is used as the integrity marker. […] Papp, efflux ratio and percent recovery are calculated.

[2] = tested on: MDR1; test: in vitro; set-up: Papp A→B at 60 min / Papp B→A at 60 min / efflux ratio at 60 min / recovery at 60 min / % recovery Apical concentration-Basal concentration / % recovery Basal concentration-Apical concentration: dose or concentration left out as unconfirmed; conditions: dog, MDCK-MDR1
Procedure: as §1

[3] = biological target: T1, CYP 1A2 (Homo sapiens, UniProt P05177); test: Metabolic stability in human liver microsomes with CYP 1A2 inhibitor Furafylline; assay type: in vitro ADME; conditions: 1 μM + Furafylline (20 μM)
T1 construct: The experiment was conducted in human liver microsomes; from tissue; host or cells: human liver microsomes
T1 sequence (P05177 1-516): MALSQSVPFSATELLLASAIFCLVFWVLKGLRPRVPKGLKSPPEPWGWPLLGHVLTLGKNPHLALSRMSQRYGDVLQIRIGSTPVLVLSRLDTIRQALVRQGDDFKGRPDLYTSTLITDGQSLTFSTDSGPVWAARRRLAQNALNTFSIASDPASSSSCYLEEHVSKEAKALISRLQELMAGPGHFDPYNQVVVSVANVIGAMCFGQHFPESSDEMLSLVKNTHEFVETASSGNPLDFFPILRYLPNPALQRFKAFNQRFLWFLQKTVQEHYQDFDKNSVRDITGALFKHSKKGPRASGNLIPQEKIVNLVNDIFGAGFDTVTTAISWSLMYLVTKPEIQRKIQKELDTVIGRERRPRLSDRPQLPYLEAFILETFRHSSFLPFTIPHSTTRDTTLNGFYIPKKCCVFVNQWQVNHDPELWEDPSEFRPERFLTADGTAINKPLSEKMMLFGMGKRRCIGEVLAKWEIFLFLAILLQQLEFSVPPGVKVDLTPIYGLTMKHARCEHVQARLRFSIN

[4] = tested on: IL-1β; test: LPS+ATP-induced model of inflammasome activation, plasma IL-1β by ELISA; assay type: in vivo, Balb/c mice; conditions: 20 mg/kg, Intraperitoneal; mice plasma
Procedure: The procedures detailed here can be utilized for testing all compounds of the disclosure. The example utilizes LPS+ATP-induced model of inflammasome activation in 8-10 weeks old male Balb/c mice for in vivo testing.
8-10 weeks old male Balb/c mice were challenged by intraperitoneal (i.p.) injection of 200 μg/Kg (0.2 μg/g) LPS at t=0 hr, followed by i.p. injection of 5 mM solution of ATP at t=2 hr (2 h after LPS challenge). The compound of disclosure being tested for inhibitory activity (such as Compound 6) was administered both via intraperitoneal and oral route at −1 hr. Different doses of the compound of the disclosure were given to the mice […] as shown below.
MCC950, a specific small molecule inhibitor of NLRP3 inflammasome was used as a positive control to enable comparison of inhibitory activity of the compounds of the disclosure along with a known inhibitor. 2.5 hours after the LPS priming (or 0.5 hours after ATP administration), blood was collected via retro-orbital bleeding in heparinized blood collection tubes. Blood was centrifuged for 5 minutes at 10,000 rpm in a refrigerated centrifuge to obtain plasma. Separated plasma was used for cytokine assessment by ELISA. The standard curve (OD VS concentration) for IL-1β was also plotted and used to determine the IL-1β concentration for the OD values. The percentage of inhibition of IL-1β was calculated using the formula: […]

[5] = biological target: T2, CYP 2C19 (Homo sapiens, UniProt P33261); test: Metabolic stability in human liver microsomes with CYP 2C19 inhibitor Nootkatone; assay type: in vitro ADME; conditions: 1 μM + Nootkatone (20 μM)
T2 construct: The experiment was conducted in human liver microsomes; from tissue; host or cells: human liver microsomes
T2 sequence (P33261 whole entry): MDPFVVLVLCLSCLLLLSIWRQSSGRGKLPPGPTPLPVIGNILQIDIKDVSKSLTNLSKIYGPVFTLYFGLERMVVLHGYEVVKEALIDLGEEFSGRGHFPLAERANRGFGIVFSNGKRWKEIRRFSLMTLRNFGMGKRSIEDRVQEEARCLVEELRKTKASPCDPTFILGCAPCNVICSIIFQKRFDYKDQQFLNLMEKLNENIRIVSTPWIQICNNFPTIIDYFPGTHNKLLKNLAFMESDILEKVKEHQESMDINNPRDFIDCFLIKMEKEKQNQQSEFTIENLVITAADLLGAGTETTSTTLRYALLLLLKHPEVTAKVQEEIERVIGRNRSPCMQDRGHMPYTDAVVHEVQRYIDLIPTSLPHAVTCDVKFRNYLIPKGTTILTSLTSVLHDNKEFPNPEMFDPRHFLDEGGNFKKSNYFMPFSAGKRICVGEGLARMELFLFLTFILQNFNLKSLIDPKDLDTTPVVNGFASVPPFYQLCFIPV

[6] = Metabolic stability assay in human liver microsomes in the presence of specific cytochrome P450 inhibitors (arm without inhibitor, summary statements); conditions: for % rem @ 5 min / % rem @ 15 min / % rem @ 30 min / % rem @ 45 min: 1 μM, no inhibitor
[7] = tested on: MDR1 transfected Madin-Darby canine kidney (MDCK) cell monolayer; test: Permeability assay (MDR1-MDCK); set-up: Papp A→B at 60 min / Papp B→A at 60 min / efflux ratio at 60 min / recovery at 60 min / % recovery Apical concentration-Basal concentration / % recovery Basal concentration-Apical concentration: dose or concentration left out as unconfirmed; conditions: Permeability (MDR1-MDCK) @
Procedure: as §1

[8] = biological target: T3, CYP 2C9 (Homo sapiens, UniProt P11712); test: Metabolic stability in human liver microsomes with CYP 2C9 inhibitor Sulfaphenazole; assay type: in vitro ADME; conditions: 1 μM + Sulfaphenazole (20 μM)
T3 construct: The experiment was conducted in human liver microsomes; from tissue; host or cells: human liver microsomes
T3 sequence (P11712 whole entry): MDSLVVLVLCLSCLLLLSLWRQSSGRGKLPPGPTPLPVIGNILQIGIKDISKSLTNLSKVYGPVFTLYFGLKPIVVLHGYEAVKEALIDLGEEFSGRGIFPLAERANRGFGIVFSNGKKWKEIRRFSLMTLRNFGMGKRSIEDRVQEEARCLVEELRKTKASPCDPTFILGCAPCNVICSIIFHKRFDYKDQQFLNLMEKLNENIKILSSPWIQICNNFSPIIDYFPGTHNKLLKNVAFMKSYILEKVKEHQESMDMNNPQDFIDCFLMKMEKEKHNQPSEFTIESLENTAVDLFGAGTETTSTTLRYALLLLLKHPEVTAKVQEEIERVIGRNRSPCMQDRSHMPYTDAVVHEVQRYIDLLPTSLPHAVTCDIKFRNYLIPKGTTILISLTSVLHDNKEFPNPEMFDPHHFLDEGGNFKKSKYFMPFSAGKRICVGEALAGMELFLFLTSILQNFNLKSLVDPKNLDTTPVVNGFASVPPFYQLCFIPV

[9] = biological target: CYP 3A4 (Homo sapiens, UniProt P08684); test: Metabolic stability in human liver microsomes with CYP 3A4 inhibitor Ketoconazole; conditions: 1 μM + Ketoconazole (20 μM)
CYP 3A4, sequence (P08684 whole entry): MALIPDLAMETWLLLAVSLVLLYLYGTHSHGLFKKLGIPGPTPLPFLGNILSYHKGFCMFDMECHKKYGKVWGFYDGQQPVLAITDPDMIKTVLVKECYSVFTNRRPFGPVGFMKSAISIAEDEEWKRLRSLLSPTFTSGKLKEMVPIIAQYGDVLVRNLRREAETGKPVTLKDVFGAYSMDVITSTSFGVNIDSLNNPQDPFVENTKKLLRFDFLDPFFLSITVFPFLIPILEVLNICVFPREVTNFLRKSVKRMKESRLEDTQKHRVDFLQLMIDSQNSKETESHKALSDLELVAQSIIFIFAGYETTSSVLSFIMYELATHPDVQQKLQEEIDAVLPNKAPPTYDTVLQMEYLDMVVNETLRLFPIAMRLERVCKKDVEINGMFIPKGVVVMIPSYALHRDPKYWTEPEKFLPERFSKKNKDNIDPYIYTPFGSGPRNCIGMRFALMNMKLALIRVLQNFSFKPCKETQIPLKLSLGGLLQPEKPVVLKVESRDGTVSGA

[10] = MDCK-MDR1, % recovery Apical concentration-Basal concentration
[11] = MDCK-MDR1, % recovery Basal concentration-Apical concentration
[12] = human, human liver microsomes, pH 7.4

CC(C)NCC(O)COc1cccc2ccccc12 (centres unmarked) [Propranolol]
efflux ratio at 60 min [1]: 1.01 | recovery at 60 min [1, 10]: 71.5% | recovery at 60 min [1, 11]: ~100% | Papp A→B at 60 min [2]: 47.5 ×10⁻⁶ cm/s | Papp B→A at 60 min [2]: 48.2 ×10⁻⁶ cm/s

CCOc1ccc(NC(C)=O)cc1 [Phenacetin, reference compound]
% rem @ 5 min [3]: ~100% | % rem @ 15 min [3]: ~100% | % rem @ 30 min [3]: ~100% | % rem @ 45 min [3]: 71.9% | half-life at 1 µM ([3]; pH 7.4, with Furafylline 20 μM): 102 min | microsomal CLint at 1 μM ([3]; pH 7.4, with Furafylline 20 μM, read-out: mCLint): 13.6 µL/min/mg

CC(C)(O)c1coc(S(=O)(=O)NC(=O)Nc2c3c(cc4c2CCC4)CCC3)c1 [MCC950, reference compound]
% IL-1 β inhibition [4]: 95%

COc1ccc2[nH]c([S+]([O-])Cc3ncc(C)c(OC)c3C)nc2c1 (centres unmarked) [Omeprazole, reference compound]
% rem @ 5 min [5]: 94.8% | % rem @ 15 min [5]: 92.7% | % rem @ 30 min [5]: 85.0% | % rem @ 45 min [5]: 55.6% | half-life at 1 µM ([5]; pH 7.4, with Nootkatone 20 μM): 59.3 min | microsomal CLint at 1 μM ([5]; pH 7.4, with Nootkatone 20 μM, read-out: mCLint): 23.4 µL/min/mg | % rem @ 5 min ([6]; human liver microsomes): 95.9% | % rem @ 15 min ([6]; human liver microsomes): 71.1% | % rem @ 30 min ([6]; human liver microsomes): 60.1% | % rem @ 45 min ([6]; human liver microsomes): 28.8% | half-life at 1 µM [6, 12]: 26.4 min | microsomal CLint at 1 μM [6, 12]: 52.6 µL/min/mg

Lucifer yellow
% recovery Apical concentration-Basal concentration [7]: 97.2% | % recovery Basal concentration-Apical concentration [7]: 97.1%

O=C(O)Cc1ccccc1Nc1c(Cl)cccc1Cl [Diclofenac, reference compound]
% rem @ 5 min [8]: ~100% | % rem @ 15 min [8]: ~100% | % rem @ 30 min [8]: 91.9% | % rem @ 45 min [8]: 82.0% | half-life at 1 µM ([8]; pH 7.4, with Sulfaphenazole 20 μM): 131 min | microsomal CLint at 1 μM ([8]; pH 7.4, with Sulfaphenazole 20 μM, read-out: mCLint): 10.6 µL/min/mg | % rem @ 5 min ([6]; human liver microsomes): 49.5% | % rem @ 15 min ([6]; human liver microsomes): 28.3% | % rem @ 30 min ([6]; human liver microsomes): 10.5% | % rem @ 45 min ([6]; human liver microsomes): 4.93%

Cc1ncc2n1-c1ccc(Cl)cc1C(c1ccccc1F)=NC2 [Midazolam]
% rem @ 5 min [9]: 96.7% | % rem @ 15 min [9]: 97.1% | % rem @ 30 min [9]: ~100% | % rem @ 45 min [9]: ~100% | % rem @ 5 min ([6]; human liver microsomes): 22.0% | % rem @ 15 min ([6]; human liver microsomes): 2.77% | % rem @ 30 min ([6]; human liver microsomes): <1% | % rem @ 45 min ([6]; human liver microsomes): <1% | half-life at 1 µM ([6]; human, microsomes, pH 7.4): 5.21 min

C[C@H]1O[C@@H](O[C@H]2[C@@H](O)C[C@H](O[C@H]3[C@@H](O)C[C@H](O[C@H]4CC[C@@]5(C)[C@H](CC[C@@H]6[C@@H]5C[C@@H](O)[C@]5(C)[C@@H](C7=CC(=O)OC7)CC[C@]65O)C4)O[C@@H]3C)O[C@@H]2C)C[C@H](O)[C@@H]1O [Digoxin]
efflux ratio at 60 min [1]: 54.3 | recovery at 60 min [1, 10]: 99.9% | recovery at 60 min [1, 11]: ~100% | Papp A→B at 60 min [2]: 0.28 ×10⁻⁶ cm/s | Papp B→A at 60 min [2]: 15.2 ×10⁻⁶ cm/s
